Experimental data taken from ChEMBL document CHEMBL5247655, “Simplified Derivatives of Tetrandrine as Potent and Specific P-gp Inhibitors to Reverse Multidrug Resistance in Cancer Chemotherapy” (J Med Chem, 2023).
Calls of active or inactive are those of the source. The rule behind the calls is not given here.

Legend:
[1] = Cytotoxicity against human HK-2 cells incubated for 48 hrs by CCK-8 method; type: toxicity, cell-based
ECa-109 cell line [2] = assay: Reversal of VCR -resistance in human Eca-109 cells assessed as cell viability at 1 uM incubated for 48 hrs by CCK-8 method (reference value: 6830.0+/-537.0 nM); type: functional, cell-based; conditions: ECa-109, 48 h
ECa-109 cell line [3] = assay: Reversal of VCR -resistance in human Eca-109 cells assessed as cell viability at 2.5 uM incubated for 48 hrs by CCK-8 method (reference value: 6830.0+/-537.0 nM); type: functional, cell-based; conditions: ECa-109, 48 h
ECa-109 cell line [4] = assay: Reversal of VCR -resistance in human Eca-109 cells assessed as cell viability at 5 uM incubated for 48 hrs by CCK-8 method (reference value: 6830.0+/-537.0 nM); type: functional, cell-based; conditions: ECa-109, 48 h
ECa-109 cell line [5] = assay: Reversal of vincristine-resistance in human Eca-109 cells assessed as fold reversal by measuring cell viability at 2.5 uM incubated for 48 hrs by CCK-8 method relative to vincristine alone; type: functional
ECa-109 cell line [6] = assay: Induction of apoptosis in vincristine resistant human Eca-109 cells assessed as viable cells at 1 uM incubated for 24 hrs by AnnexinV-FITC/PI staining based flow cytometric analysis (reference value: 90.3%); type: functional; conditions: read-out: Activity
ECa-109 cell line [7] = assay: Induction of apoptosis in vincristine resistant human Eca-109 cells assessed as viable cells at 2.5 uM incubated for 24 hrs by AnnexinV-FITC/PI staining based flow cytometric analysis (reference value: 90.3%); type: functional; conditions: read-out: Activity
ECa-109 cell line [8] = assay: Induction of apoptosis in vincristine resistant human Eca-109 cells assessed as necrotic cells at 2.5 uM incubated for 24 hrs by AnnexinV-FITC/PI staining based flow cytometric analysis (reference value: 0.25%); type: functional
ECa-109 cell line [9] = assay: Induction of apoptosis in vincristine resistant human Eca-109 cells assessed as necrotic cells at 5 uM incubated for 24 hrs by AnnexinV-FITC/PI staining based flow cytometric analysis (reference value: 0.25%); type: functional
ECa-109 cell line [10] = assay: Induction of apoptosis in vincristine resistant human Eca-109 cells assessed as early apoptotic cells at 2.5 uM incubated for 24 hrs in presence of vincristine by AnnexinV-FITC/PI staining based flow cytometric analysis (reference value: 4.43%); type: functional
ECa-109 cell line [11] = assay: Induction of apoptosis in vincristine resistant human Eca-109 cells assessed as late apoptotic cells at 1 uM incubated for 24 hrs in presence of vincristine by AnnexinV-FITC/PI staining based flow cytometric analysis (reference value: 6.01%); type: functional
ECa-109 cell line [12] = assay: Induction of apoptosis in vincristine resistant human Eca-109 cells assessed as necrotic cells at 5 uM incubated for 24 hrs in presence of vincristine by AnnexinV-FITC/PI staining based flow cytometric analysis (reference value: 0.35%); type: functional
ECa-109 cell line [13] = assay: Synergistic antitumor activity against in vincristine resistant p-gp overexpressing human Eca-109 cells xenografted in nude mouse assessed as increase in apoptosis at 30 mg/kg, IG administered every two days for 21 days in presence of vincristine by TUNEL analysis; type: functional, organism-based; conditions: time 21.0 day
[14] = Tmax in Sprague-Dawley rat at 3 mg/kg, iv measured upto 24 hrs by UPLC/MS/MS analysis; type: ADME, organism-based; conditions: in vivo
[15] = Cmax in Sprague-Dawley rat at 3 mg/kg, iv measured upto 24 hrs by UPLC/MS/MS analysis; type: ADME, organism-based; set-up: time < 24 hrs, dose 3 mg/kg, route iv; conditions: in vivo
[16] = Terminal elimination half life in Sprague-Dawley rat at 30 mg/kg, po measured upto 24 hrs by UPLC/MS/MS analysis; type: ADME, organism-based; conditions: in vivo, read-out: LambdaZ (converted)
[17] = Half life in Sprague-Dawley rat at 3 mg/kg, iv measured upto 24 hrs by UPLC/MS/MS analysis; type: ADME, organism-based; conditions: in vivo
[18] = AUC (0 to t) in Sprague-Dawley rat at 30 mg/kg, po measured upto 24 hrs by UPLC/MS/MS analysis; type: ADME, organism-based; set-up: time < 24 hrs, dose 30 mg/kg, route po; conditions: in vivo
[19] = AUMC (0 to infinity) in Sprague-Dawley rat at 30 mg/kg, po measured upto 24 hrs by UPLC/MS/MS analysis; type: ADME, organism-based; conditions: in vivo
[20] = Apparent volume of distribution during terminal phase in Sprague-Dawley rat at 30 mg/kg, po measured upto 24 hrs by UPLC/MS/MS analysis; type: ADME, organism-based; conditions: in vivo, read-out: Vz/F
[21] = biological target: T1, ATP-dependent translocase ABCB1 (Homo sapiens, UniProt P08183); assay: Inhibition of P-gp efflux in vincristine resistant human Eca-109 cells assessed as increase in colocalization of dox with nucleus at 1 to 5 uM incubated for 3 hrs by DAPI staining based laser-scanning confocal microscopy analysis; type: cell-based; conditions: eca-109, 3 h, dose 1-5 µM
T1 sequence (P08183 whole entry): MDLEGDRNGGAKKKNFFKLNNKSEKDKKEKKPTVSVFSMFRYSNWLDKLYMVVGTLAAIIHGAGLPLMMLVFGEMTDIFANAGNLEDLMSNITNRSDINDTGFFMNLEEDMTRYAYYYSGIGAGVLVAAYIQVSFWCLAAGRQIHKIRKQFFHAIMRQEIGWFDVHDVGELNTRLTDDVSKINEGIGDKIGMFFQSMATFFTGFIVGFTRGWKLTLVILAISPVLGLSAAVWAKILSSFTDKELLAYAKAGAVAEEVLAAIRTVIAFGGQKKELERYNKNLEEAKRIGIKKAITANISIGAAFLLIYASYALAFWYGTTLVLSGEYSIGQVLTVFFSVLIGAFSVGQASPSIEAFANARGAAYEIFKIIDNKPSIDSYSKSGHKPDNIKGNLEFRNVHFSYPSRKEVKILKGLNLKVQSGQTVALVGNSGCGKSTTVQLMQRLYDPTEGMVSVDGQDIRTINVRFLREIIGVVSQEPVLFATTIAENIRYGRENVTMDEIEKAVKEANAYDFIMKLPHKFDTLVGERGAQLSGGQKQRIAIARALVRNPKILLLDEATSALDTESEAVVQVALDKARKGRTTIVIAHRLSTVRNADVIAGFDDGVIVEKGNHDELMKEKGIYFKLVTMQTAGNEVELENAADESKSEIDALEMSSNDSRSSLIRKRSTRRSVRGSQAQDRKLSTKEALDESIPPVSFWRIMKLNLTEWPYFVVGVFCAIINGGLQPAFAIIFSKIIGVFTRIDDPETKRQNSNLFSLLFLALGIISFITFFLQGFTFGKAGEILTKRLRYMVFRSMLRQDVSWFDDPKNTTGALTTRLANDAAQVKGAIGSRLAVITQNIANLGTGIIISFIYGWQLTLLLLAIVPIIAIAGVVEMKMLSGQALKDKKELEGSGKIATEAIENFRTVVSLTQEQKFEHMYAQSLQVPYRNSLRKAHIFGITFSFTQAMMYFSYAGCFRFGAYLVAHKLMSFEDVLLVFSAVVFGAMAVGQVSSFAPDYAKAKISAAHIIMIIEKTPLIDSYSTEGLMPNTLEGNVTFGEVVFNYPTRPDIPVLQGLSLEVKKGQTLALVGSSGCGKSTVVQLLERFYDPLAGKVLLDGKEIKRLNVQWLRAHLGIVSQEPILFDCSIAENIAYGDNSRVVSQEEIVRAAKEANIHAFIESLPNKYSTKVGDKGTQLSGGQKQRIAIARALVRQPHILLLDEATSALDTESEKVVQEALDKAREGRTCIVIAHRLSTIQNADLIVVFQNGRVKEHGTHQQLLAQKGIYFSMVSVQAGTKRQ

[22] = biological target: T1, ATP-dependent translocase ABCB1; assay: Inhibition of P-gp efflux in vincristine resistant human Eca-109 cells assessed as increase in rhodamine 123 fluorescence intensity incubated for 3 hrs; type: cell-based; conditions: eca-109, 3 h, dose 0-45 µM
[23] = biological target: T1, ATP-dependent translocase ABCB1; assay: Inhibition of P-gp efflux in vincristine resistant human Eca-109 cells assessed as effect on accumulation of doxorubicin; type: cell-based
[24] = biological target: T1, ATP-dependent translocase ABCB1; assay: Inhibition of P-gp efflux in vincristine resistant human Eca-109 cells assessed as increase in intracellular accumulation of rhodamine123 at 1 to 5 uM incubated for 1 hr by flow cytometry analysis; type: cell-based; conditions: eca-109, 1 h, dose 1-5 µM

- Tmax [14]: 0.17 h
- Cmax [15]: 1570 ng/mL
- k el at 24 h [16]: 3.33e-05 s⁻¹
- half-life [17]: 8.43 h
- AUC(0-t) at 24 h [18]: 2670 ng·h/mL
- AUMC [19]: 131110.55 ng/mL.hr^2
- Vd/F [20]: 111 L/kg
- inhibition (INH) [21]: Active
- inhibition (INH) [22]: Dose-Dependent Effect
- inhibition (INH) [23]: Active
- inhibition (INH) [24]: Active
SMILES: COc1cc2c(cc1OC)C(Cc1ccc(OC)c(OCc3ccccc3)c1)N(C)CC2 (centres undefined)
- IC50 at 48 h [1]: > 50000 nM
- IC50 (ECa-109 cell line [2]): 1870 nM
- IC50 (ECa-109 cell line [3]): 66.1 nM
- IC50 (ECa-109 cell line [4]): 9.9 nM
- fold change (FC) (ECa-109 cell line [5]): 103.4
- viability at 1 µM (ECa-109 cell line [6]): 91.6%
- viability at 2.5 µM (ECa-109 cell line [7]): 91.9%
- Activity (ECa-109 cell line [8]): 0.11%
- Activity (ECa-109 cell line [9]): 0.14%
- Activity (ECa-109 cell line [10]): 17.8%
- Activity (ECa-109 cell line [11]): 8.64%
- Activity (ECa-109 cell line [12]): 0.62%
- Activity (ECa-109 cell line [13]): Active
